Results taken from patent US20210139435A1, “PROSTAGLANDIN ANALOGS AND USES THEREOF” (Lifex Biolabs, Inc., priority 2019, published 2021).

Key:
Nurr1 = Nurr1 (Homo sapiens, UniProt P43354); assay: Activation of Nurr1 / Nurr1's transcription function by prostaglandins (stated without method); type: cell-based
[1] = biological target: ligand-binding domain (LBD) of Nurr1 (Homo sapiens, UniProt P43354); assay: Binding of prostaglandins to Nurr1-LBD (NMR titration)
Excerpt: Cyclopentenone prostaglandin's A1/A2 are dehydrated metabolites of their precursors, the cyclopentanone prostaglandins E1/E2. In PGE1/E2, a hydroxyl group is attached to the C11 atom, which is responsible for the covalent attachment between PGA1 and Nurr1. This is evident from the electron density observed between the PGA1/A2's C11 atom (Rajan, S. et al. Nat Chem Biol 16, 876-886 (2020); U.S. patent application Ser. No. 16/334,550) and Nurr1's Cys566 sulphur, a characteristic feature of PGA1/A2 binding. […] Based on these one could conclude that both PGA1 and PGE1 can be used to design analogs, preferably using PGE1 which is better suited for chemic synthesis and modifications as it lacks the reactive C11 site, concealed by the hydroxyl group (Rajan, S. et al. Nat Chem Biol 16, 876-886 (2020)). […] One such is the misoprostol, which enhanced Nurr1's transcription function. Thus, we chose PGE1 and Misoprostol as the candidate molecules to make modification.

[2] = test system: 6-OHDA Parkinson's disease model; assay: 6-OHDA Parkinson's disease model, apomorphine induced rotational behavior, intranasal administration; type: in vivo, C57BL/6 mice; settings: apomorphine (0.5 mg/kg) induced rotation; daily intranasal 0.2 mg/ml; 6-OHDA mice
Description: Mice were randomly divided into […]: Control (n=4); 6-OHDA (6-hydroxydopamine)+(n=7), 6-OHDA+PGE1 (n=8); 6-OHDA+BSC15 (the compound of the present invention) (n=8); 6-OHDA+BSC19 (the compound of the present invention) (n=7).
Week 9-10 C57BL/6 mice were intranasally administered daily with 0.2 mg/ml of compounds to be tested for 3 days before 6-OHDA injection. Stereotaxic surgery was performed by injecting 7.5 μg of 6-OHDA into the left striatum (AP: +0.5 mm, ML: −2.0 mm, VD: −3.5 mm) of the mouse. Compounds to be tested, i.e., PGE1, BSC15 and BSC19 were prepared by double emulsion solvent evaporation of 1:4 molar ratio with 2-hydroxypropyl-β-cyclodextrin. After surgical recovery, the daily intranasal administration continued with a weekly assessment of apomorphine (0.5 mg/kg) induced rotational behavior. Animal care and handling were performed according to the protocol approved by Nanyang Technological University's Institutional Animal Care and Use Committee.

mouse Nurr1 full-length = biological target: T1, mouse Nurr1 full-length (Mus musculus, UniProt Q06219); assay: Luciferase reporter gene assay for Nurr1 transcriptional activity in SK-N-BE2C cells; type: cell-based; settings: relative activity over control (luminescence value; 1.0)
T1 construct: pcDNA3.1 Myc/His mouse Nurr1 full-length construct; expressed in transfected cells; host or cells: SK-N-BE2C
T1 sequence (Q06219 whole entry): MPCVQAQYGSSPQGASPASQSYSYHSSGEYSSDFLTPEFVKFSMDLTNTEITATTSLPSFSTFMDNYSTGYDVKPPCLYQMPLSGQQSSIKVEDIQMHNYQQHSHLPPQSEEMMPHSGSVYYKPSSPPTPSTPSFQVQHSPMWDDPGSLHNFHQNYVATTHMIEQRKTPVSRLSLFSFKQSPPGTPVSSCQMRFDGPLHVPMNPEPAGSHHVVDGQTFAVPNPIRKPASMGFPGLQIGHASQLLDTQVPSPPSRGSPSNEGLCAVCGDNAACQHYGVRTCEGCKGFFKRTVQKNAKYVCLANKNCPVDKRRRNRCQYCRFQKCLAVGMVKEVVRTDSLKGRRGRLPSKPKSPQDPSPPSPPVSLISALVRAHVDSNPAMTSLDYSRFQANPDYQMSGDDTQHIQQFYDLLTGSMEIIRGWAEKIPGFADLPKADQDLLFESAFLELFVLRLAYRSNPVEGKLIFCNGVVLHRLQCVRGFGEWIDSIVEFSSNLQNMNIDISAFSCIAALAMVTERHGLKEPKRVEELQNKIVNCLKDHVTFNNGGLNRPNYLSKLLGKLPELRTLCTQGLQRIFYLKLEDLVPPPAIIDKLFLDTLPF
How it was run: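 SK-N-BE2C cells co-transfected with mouse full-length Nurr1, firefly reporter carrying response element and Renilla control (8:1:1), then exposed to compound doses for 24 h at 37 °C. Dual-luciferase readout; firefly RLU normalized to Renilla after background subtraction, then to DMSO-treated wells.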

Chain of Nurr1 (P43354 whole entry, species assumed, the tested form may be a part): as the sequence (Q06219 whole entry) above, with S131T, S134G, D354E counted along it
Chain of ligand-binding domain (LBD) of Nurr1 (P43354 360-595 limits assumed): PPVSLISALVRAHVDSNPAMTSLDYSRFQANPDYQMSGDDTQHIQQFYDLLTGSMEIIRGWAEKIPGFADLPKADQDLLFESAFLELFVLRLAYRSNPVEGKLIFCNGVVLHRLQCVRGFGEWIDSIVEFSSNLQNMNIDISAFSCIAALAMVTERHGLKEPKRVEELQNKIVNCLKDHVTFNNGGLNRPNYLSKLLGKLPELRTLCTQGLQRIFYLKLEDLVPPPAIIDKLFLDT

SMILES | Fold activity (1 uM) (mouse Nurr1 full-length) | also measured
CCCCC[C@H](O)/C=C/[C@H]1[C@H](O)CC(=O)[C@@H]1C/C=C\CCCC(=O)O [PGE2, Prostaglandin E2] | – | activation of Nurr1 (Nurr1): activate; direct binding to the ligand-binding domain (LBD) of Nurr1 [1]: directly bind
CCCCC[C@H](O)/C=C/[C@H]1C=CC(=O)[C@@H]1CCCCCCC(=O)O [PGA1] | – | activation of Nurr1 (Nurr1): activate; direct binding to the ligand-binding domain (LBD) of Nurr1 [1]: directly bind; binding site on Nurr1-LBD by NMR titration [1]: interact at same binding site on Nurr1-LBD
CCCCC[C@H](O)/C=C/[C@H]1[C@H](O)CC(=O)[C@@H]1CCCCCCC(=O)O [PGE1, Prostaglandin E1] | – | activation of Nurr1 (Nurr1): activate; rotation number [2]: significant reduction; direct binding to the ligand-binding domain (LBD) of Nurr1 [1]: directly bind; binding site on Nurr1-LBD by NMR titration [1]: interact at same binding site on Nurr1-LBD
CCCCC[C@H](O)/C=C/[C@H]1C=CC(=O)[C@@H]1C/C=C\CCCC(=O)O [PGA2] | – | activation of Nurr1 (Nurr1): activate; direct binding to the ligand-binding domain (LBD) of Nurr1 [1]: directly bind
CCCCC(C)(O)C/C=C/[C@H]1[C@H](O)CC(=O)[C@@H]1CCCCCCC(=O)OC (stereo partly drawn) [misoprostol, Misoprostol] | – | Nurr1's transcription function (Nurr1): enhanced
CCCCC[C@H](O)/C=C/[C@H]1[C@H](O)CC(=O)[C@@H]1CCCCCCC(=O)NOc1ccccc1 [Compound 9, 7-((1R,2R,3R)-3-hydroxy-2-((S,E)-3-hydroxyoct-1-enyl)-5-oxocyclopentyl)-N-phenoxyheptanamide] | A (above 2.0 (high activity)) | –
CCCCC[C@H](O)/C=C/[C@H]1[C@H](O)CC(=O)[C@@H]1C/C=C/CCCC(=O)Oc1ccc(NC(C)=O)cc1 [Compound 44, Prostaglandin E2 p-acetamidophenyl ester] | A (above 2.0 (high activity)) | –
CCCCC[C@](C)(O)/C=C/[C@H]1[C@H](O)CC(=O)[C@@H]1CCCCCCC(=O)O [Compound 27, 15(S)-15-methyl Prostaglandin E1] | A (above 2.0 (high activity)) | –
CCCCC[C@H](O)/C=C/[C@H]1[C@H](O)CC(=O)[C@@H]1CCCCCCCCC(=O)O [Compound 34, 1a,1b-dihomo Prostaglandin E1] | B (1.1~2.0 (moderate)) | –
CCCCC[C@H](O)/C=C/[C@H]1[C@H](O)CC(=O)[C@@H]1CCCCCCC(=O)Oc1ccc(NC(=O)c2ccc(F)c(F)c2)cc1 [Compound 12, 4-(3,4-difluorobenzamido)phenyl 7-((1R,2R,3R)-3-hydroxy-2-((S,E)-3-hydroxyoct-1-enyl)-5-oxocyclopentyl)heptanoate] | A (above 2.0 (high activity)) | –
CCCCC[C@H](O)/C=C/[C@H]1[C@H](O)CC(=O)[C@@H]1CCCCCCC(=O)Oc1cc(OC)c(OC)c(OC)c1 [Compound 14, 3,4,5-trimethoxyphenyl 7-((1R,2R,3R)-3-hydroxy-2-((S,E)-3-hydroxyoct-1-enyl)-5-oxocyclopentyl)heptanoate] | A (above 2.0 (high activity)) | –
CS(=O)(=O)NC(=O)CCC/C=C\C[C@H]1C(=O)C[C@@H](O)[C@@H]1/C=C/[C@@H](O)COc1ccccc1 [Compound 22, Sulprostone] | B (1.1~2.0 (moderate)) | –
CCCCC[C@H](O)/C=C/[C@H]1[C@H](O)CC(=O)[C@@H]1CCCCCCC(=O)Nc1ccccc1 [Compound 4, 7-((1R,2R,3R)-3-hydroxy-2-((S,E)-3-hydroxyoct-1-enyl)-5-oxocyclopentyl)-N-phenylheptanamide] | A (above 2.0 (high activity)) | –
CCCCC[C@H](O)/C=C/[C@H]1[C@H](O)CC(=O)[C@@H]1C/C=C\CCCC(=O)NCCO [Compound 36, Prostaglandin E2 Ethanolamide] | B (1.1~2.0 (moderate)) | –

The next lines start with results.

Fold activity (1 uM) (mouse Nurr1 full-length) | SMILES | also measured
C (below 1.0 (low activity)) | CCCCC[C@@H](O)/C=C/[C@H]1C(=O)C[C@H](O)[C@@H]1CCCCCCCO [Compound 56, Prostaglandin D1 Alcohol] | –
A (above 2.0 (high activity)) | CCCCC(C)(C)[C@H](O)/C=C/[C@H]1[C@H](O)CC(=O)[C@@H]1C/C=C\CCCC(=O)Oc1ccc(NC(=O)c2ccc(NC(C)=O)cc2)cc1 [Compound 77, 16,16-dimethyl Prostaglandin E2 p-(p-acetamidobenzamido) phenyl ester] | –
A (above 2.0 (high activity)) | CCCCC[C@H](O)/C=C/[C@H]1[C@H](O)CC(=O)[C@@H]1C/C=C\CCCC(=O)Oc1ccc(NC(=O)c2ccccc2)cc1 [Compound 52, Prostaglandin E2 p-benzamidophenyl ester] | –
B (1.1~2.0 (moderate)) | CCCCC(C)(O)C/C=C/[C@H]1[C@H](O)CC(=O)[C@@H]1CCCCCCC(=O)O (mixture of isomers) [Compound 94, Misoprostol acid] | –
A (above 2.0 (high activity)) | CCCCC(C)(C)[C@H](O)/C=C/[C@H]1[C@H](O)CC(=O)[C@@H]1C/C=C\CCCC(=O)O [Compound 69, 16,16-dimethyl Prostaglandin E2] | –
A (above 2.0 (high activity)) | CCCCC[C@H](O)/C=C/[C@H]1[C@H](O)CC(=O)[C@H]1C/C=C\CCCC(=O)O [Compound 68, 8-iso Prostaglandin E2] | –
